{
  "source": "patent US20170050980A1",
  "about": "“OXADIAZINE COMPOUNDS AND METHODS OF USE THEREOF” (FORUM Pharmaceuticals Inc., priority 2015, published 2017)",
  "data": [
    {"test_system": "Aβ42", "assay": "In vitro cell screening assay; quantification of Aβ (1-42) peptide by sandwich ELISA", "format": "cell-based", "settings": "Human neuroglioma H4 cells stably expressing human wild type APP751; compounds 0.003-10 μM, incubated overnight (16-18 h); Aβ42 in supernatant by sandwich ELISA; normalized to DMSO and DAPT; read-out: Aβ42 H4 Prot Fre IC50", "how_it_was_run": "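Stable H4 neuroglioma line expressing human wild-type APP751; compounds 0.003-10 μM (0.33% DMSO final) added in Pro293 medium 6 h after plating, incubated overnight (16-18 h) at 37 °C. Secreted Aβ42 measured in supernatant by C-terminal-capture sandwich ELISA with 4G8-HRP detection; IC50 by sigmoidal fit, normalized to DMSO and DAPT.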", "units": {"IC50": "nM"}, "values": [
      {"smiles": "COc1nc(C2=NOC(C3CC3)C(c3ccc(Cl)cc3)N2)ccc1-n1cnc(C)c1", "note": "(stereo not drawn) [Example 20B, (+)-cis-5-(4-chlorophenyl)-6-cyclopropyl-3-[6-methoxy-5-(4-methyl-1H-imidazol-1-yl)pyridin-2-yl]-5,6-dihydro-4H-1,2,4-oxadiazine]", "IC50": 9},
      {"smiles": "COc1nc(C2=NOC(C)C(c3ccc(Cl)cc3)N2)ccc1-n1cnc(C)c1", "note": "(stereo not drawn) [Example 24A, (−)-trans-5-(4-chlorophenyl)-3-[6-methoxy-5-(4-methyl-1H-imidazol-1-yl)pyridin-2-yl]-6-methyl-5,6-dihydro-4H-1,2,4-oxadiazine]", "IC50": 1200},
      {"smiles": "COc1nc(C2=NOC(C)C(c3ccc(Cl)cc3)N2)ccc1-n1cnc(C)c1", "note": "(stereo not drawn) [Example 24B, (+)-trans-5-(4-chlorophenyl)-3-[6-methoxy-5-(4-methyl-1H-imidazol-1-yl)pyridin-2-yl]-6-methyl-5,6-dihydro-4H-1,2,4-oxadiazine]", "IC50": 15},
      {"smiles": "COc1nc(C2=NOC(C)C(c3nn(C)c4ccc(Cl)cc34)N2)ccc1-n1cnc(C)c1", "note": "(stereo not drawn) [Example 69A, (+)-(cis)-5-(5-chloro-1-methyl-1H-indazol-3-yl)-3-(6-methoxy-5-(4-methyl-1H-imidazol-1-yl)pyridin-2-yl)-6-methyl-5,6-dihydro-4H-1,2,4-oxadiazine]", "IC50": 5.9},
      {"smiles": "COc1nc(C2=NOC(C)C(c3nn(C)c4ccc(Cl)cc34)N2)ccc1-n1cnc(C)c1", "note": "(stereo not drawn) [Example 69B, (−)-(cis)-5-(5-chloro-1-methyl-1H-indazol-3-yl)-3-(6-methoxy-5-(4-methyl-1H-imidazol-1-yl)pyridin-2-yl)-6-methyl-5,6-dihydro-4H-1,2,4-oxadiazine]", "IC50": 706},
      {"smiles": "COc1nc(C2=NO[C@H](c3ccc(Cl)cc3)[C@H](C)N2)ccc1-n1cnc(C)c1", "note": "[Example 71A, (5S,6R)-6-(4-chlorophenyl)-3-(6-methoxy-5-(4-methyl-1H-imidazol-1-yl)pyridin-2-yl)-5-methyl-5,6-dihydro-4H-1,2,4-oxadiazine]", "IC50": 12.7}
    ]}
  ]
}
